Data on one compound can be found in publication PMC4349960, “[^18F]FE@SUPPY: a suitable PET tracer for the adenosine A3 receptor? An in vivo study in rodents” (European Journal of Nuclear Medicine and Molecular Imaging, 2015).

Where “and” joins values, the source holds several entries; their conditions need not be identical. Equal values may be shown once. Entries after “also recorded” stand apart in the source; their conditions may differ.

The nature of data set [1]: In vitro plasma stability, human plasma. Format: in vitro ADME. The settings on record: 0-120 min. Here is the method: Experiments were conducted following a standard protocol. Briefly, [^18F]FE@SUPPY was added to lithium-heparinized human or rat plasma and after predetermined times (0, 60 and 120 min), the incubation mixture was eluted through a preconditioned SPE cartridge. The washed and newly eluted eluate solutions were injected into the radio-HPLC system (HPLC system as described in the section Ex vivo stability). The stationary phase was an analytical HPLC column LiChrospher LICHROCART® RP-18e (5 μm), 125 × 4 mm precolumn, and the mobile phase consisted of sodium citrate tribasic dehydrate (buffered at 0.034 M, pH 2.5)/acetonitrile 32:68 at a flow rate of 2 mL/min. Samples were incubated with a Thermomixer Compact from Eppendorf (Vienna, Austria) and centrifuged with a Universal 30 RF centrifuge from Hettich (Tuttlingen, Germany).

On the set-up of data set [2]: method as in doi:10.2174/1876388X00901010015. Conditions: cited from earlier work.
The nature of data set [3]: Ex vivo stability/metabolism in rat plasma and brain after pretreatment. Details: species or system rats. The settings on record: for Brain to blood uptake ratio / %ID/g at 60 min, Blood (plasma) / %ID/g at 60 min, Brain / Unchanged [^18F]FE@SUPPY at 60 min, Blood (plasma) / Unchanged [^18F]FE@SUPPY at 60 min, Brain: rats. The method, then:
To determine the influence of the four treatments (vehicle, MRS1523, FE@SUPPY, TQD) on uptake of [^18F]FE@SUPPY, stability was assessed in plasma and brain 60 min after tracer injection. Final blood samples (3 mL) were collected in heparin-buffered tubes, rat brains were washed with ice-cold water and homogenized in 0.9 % aqueous NaCl solution (1 mL) using an IKA T10 basic Ultra-turrax (IKA Laboratory Equipment, Staufen, Germany). […] Sample clean-up was performed by vortexing plasma with the equivalent amount of methanol/acetonitrile (9:1) for 1 min and by subsequent ultracentrifugation (10,000 rpm, 5 min) to remove precipitated proteins. The supernatants obtained were analysed by radio-HPLC (Agilent, Boeblingen, Germany) equipped with a series 1100 autosampler, a series 1200 quaternary pump, a series 1200 diode array detector and a lead-shielded BGO radiodetector. A Chromolith® Performance RP-18e (100 × 4.6 mm, 5 μm) column with a Chromolith® Performance RP-18e (4 x4 mm, 5 μm) precolumn was eluted at a flow rate of 2 mL/min using a mobile phase consisting of 60 % acetonitrile and 40 % water/acetic acid 97.5:2.5 and 32 mM ammonium acetate, pH 3.5. UV detection was performed at a wavelength of 254 nm. The retention time of [^18F]FE@SUPPY was 4.6 – 5.9 min (UV detection and radiodetection).

The mark [4] stands for this setting: pretreatment unlabelled FE@SUPPY.

On to `CCSC(=O)c1c(CC)nc(-c2ccccc2)c(C(=O)OCC[18F])c1CC` [[^18F]FE@SUPPY, 5-(2-[^18F]fluoroethyl)-2,4-diethyl-3-(ethylsulfanylcarbonyl)-6-phenylpyridine-5-carboxylate], for which, in data set [1], the “stability in human plasma” value is “no degradation; also recorded: no metabolites were observed; also recorded: Stable over 120 min in human plasma”. Moreover, the logP assessment result in data set [2] is on record as “high lipophilicity”. Further, the “HPLClogD^7.4” value in data set [2] (pH 7.4) is 4.04. Besides, the “Ex vivo metabolites in rats (where found)” value in data set [3] (60 min after tracer injection) was “Blood and brain”. Moreover, the “Brain to blood uptake ratio” value in data set [3] (baseline) is 5.2; in data set [3] (pretreatment FE@SUPPY) it was 7.9. For the same compound, the “%ID/g at 60 min, Blood (plasma)” value in data set [3] (pretreatment DMSO) was 0.022 ± 0.003 %ID/g and 0.0216 ± 0.003 %ID/g; in data set [3] (pretreatment MRS1523) it was 0.0145 ± 0.002 %ID/g; in data set [3] (pretreatment TQD), 0.0214 ± 0.004 %ID/g; in data set [3] (setting [4]), 0.0160 ± 0.002 %ID/g. For the same compound, the “%ID/g at 60 min, Brain” value in data set [3] (pretreatment DMSO) came to 0.1132 ± 0.0002 %ID/g; in data set [3] (pretreatment MRS1523) it was 0.0918 ± 0.0001 %ID/g; in data set [3] (pretreatment TQD), 0.1507 ± 0.0005 %ID/g; in data set [3] (setting [4]) it was 0.1273 ± 0.0000 %ID/g. Also, the “Unchanged [^18F]FE@SUPPY at 60 min, Blood (plasma)” value in data set [3] (pretreatment DMSO) is 25.8 ± 5.3% and 25.81 ± 5.3%; in data set [3] (pretreatment MRS1523), 26.5 ± 1.4% and 26.54 ± 1.4%; in data set [3] (pretreatment TQD), 39.9 ± 4.7% and 39.87 ± 4.7%; in data set [3] (setting [4]), 32.4 ± 5.6%. Moreover, the “Unchanged [^18F]FE@SUPPY at 60 min, Brain” value in data set [3] (pretreatment DMSO) is 43.7 ± 9.5%; in data set [3] (pretreatment MRS1523) it was 37.8 ± 4.3% and 37.75 ± 4.3%; in data set [3] (pretreatment TQD) it was 55.2 ± 7.0% and 55.21 ± 7.0%; in data set [3] (setting [4]), 49.6 ± 9.4% and 49.64 ± 9.4%.
